Data published in patent US9963434B2, “N-arylmethyl sulfonamide negative modulators of NR2A” (LUC THERAPEUTICS, priority 2013, dated 2018).
Read-outs that look alike come from different tables or passages of the source.

Biological target: NR1/NR2A (Homo sapiens (Human), UniProt Q05586+Q12879)
Assay: FDSS Ca2+ influx inhibition assay in HEK293 cells expressing NR1/NR2A
Type: cell-based
Conditions: 3 μM glutamate, 3 μM glycine, 1 mM Ca2+
Description: Cell Culture and plating: HEK293 cells expressing NR1/NR2A (Chantest, Cleveland, Ohio) were grown to 70-80% confluency as an adherent monolayer in standard tissue culture flasks at 37° C., 5% CO2 per supplier's instructions.
After induction, cell culture medium was removed and cells were rinsed once with Ca^2+ and Mg^2+-free Dulbecco's phosphate buffered saline. Cells were then removed from the flask using TrypLE™ Express (Life Technologies) according to the manufacturer's instructions and collected to 50 ml centrifuge tubes. Following two washes in Ca^2+/Mg^2+-free HBSS with 20 mM HEPES (HHnoCa), cells were counted and viability assessed using trypan blue. To load cells with Ca^2+-sensitive dye, they were resuspended in fluo-8 plus Component B (AAT Bioquest Products) diluted in HHnoCa and incubated 15 minutes at 37° C., followed by 30 minutes at room temp (in dark). Cells were then washed and resuspended in HHnoCa to remove extracellular dye and plated in 384-well plates (Falcon, uncoated) at 20,000-30,000 cells/well in a final volume of 25 μL/well.
FDSS Assay: To each well of the plate, 10 μL test compound, control (MK801) or HHnoCa buffer was added to a final concentration of 10 μM with a final concentration of DMSO of 0.1%. Following 10 minutes pre-incubation in the dark, plates are loaded onto the Hamamatsu FDSS 6000. After collecting baseline fluorescence images, 3 μM glutamate, 3 μM glycine, and 1 mM Ca^2+ in HHnoCa buffer is added to each well, and Ca^2+ is recorded for 3 minutes. Data were processed by computing ratio of fluorescence at the end of data collection to baseline fluorescence to assess degree of Ca^2+ influx inhibition relative to that observed in MK801.

[1] = inhibition relative to MK801, read-out: NR2A IC50

NR1/NR2A, sequence (Q12879 23-1464, other chains not shown): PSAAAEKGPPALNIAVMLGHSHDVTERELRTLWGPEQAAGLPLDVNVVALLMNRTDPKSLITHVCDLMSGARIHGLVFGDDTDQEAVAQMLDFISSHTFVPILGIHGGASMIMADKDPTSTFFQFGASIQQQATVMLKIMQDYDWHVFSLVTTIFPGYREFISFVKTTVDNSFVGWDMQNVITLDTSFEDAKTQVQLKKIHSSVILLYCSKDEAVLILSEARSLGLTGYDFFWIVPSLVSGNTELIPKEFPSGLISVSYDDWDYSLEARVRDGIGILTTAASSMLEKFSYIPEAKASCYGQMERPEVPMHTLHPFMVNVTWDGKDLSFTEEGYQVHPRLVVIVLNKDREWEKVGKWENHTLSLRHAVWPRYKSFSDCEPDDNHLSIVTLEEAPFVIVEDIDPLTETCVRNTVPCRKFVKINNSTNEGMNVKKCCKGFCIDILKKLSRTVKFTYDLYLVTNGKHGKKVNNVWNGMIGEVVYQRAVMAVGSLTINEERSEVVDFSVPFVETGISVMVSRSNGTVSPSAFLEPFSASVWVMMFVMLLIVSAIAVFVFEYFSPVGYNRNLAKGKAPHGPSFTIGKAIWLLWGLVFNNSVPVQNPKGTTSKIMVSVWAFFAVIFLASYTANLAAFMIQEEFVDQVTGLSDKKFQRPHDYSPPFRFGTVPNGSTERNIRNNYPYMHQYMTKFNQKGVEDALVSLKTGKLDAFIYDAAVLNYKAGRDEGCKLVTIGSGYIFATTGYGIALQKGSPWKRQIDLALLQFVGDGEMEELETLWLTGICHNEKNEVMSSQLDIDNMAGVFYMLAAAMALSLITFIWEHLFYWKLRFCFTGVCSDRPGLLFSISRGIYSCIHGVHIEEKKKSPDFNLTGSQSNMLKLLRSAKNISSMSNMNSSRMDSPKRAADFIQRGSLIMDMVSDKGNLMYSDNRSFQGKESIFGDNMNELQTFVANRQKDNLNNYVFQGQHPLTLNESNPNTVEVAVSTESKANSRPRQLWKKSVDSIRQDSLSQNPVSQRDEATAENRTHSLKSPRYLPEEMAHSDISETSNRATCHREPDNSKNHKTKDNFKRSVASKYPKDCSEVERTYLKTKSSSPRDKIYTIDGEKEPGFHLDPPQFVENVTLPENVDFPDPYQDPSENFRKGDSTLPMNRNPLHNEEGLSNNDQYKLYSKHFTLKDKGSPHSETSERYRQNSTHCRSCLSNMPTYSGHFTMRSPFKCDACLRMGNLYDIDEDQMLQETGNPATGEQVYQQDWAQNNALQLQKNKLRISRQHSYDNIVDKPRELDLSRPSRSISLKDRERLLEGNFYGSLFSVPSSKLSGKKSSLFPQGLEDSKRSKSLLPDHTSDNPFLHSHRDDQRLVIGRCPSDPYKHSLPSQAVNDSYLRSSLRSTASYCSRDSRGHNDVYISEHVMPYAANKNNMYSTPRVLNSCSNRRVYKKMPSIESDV

| IC50 [1] | IC50 (read-out: Binned Activity) | Structure (SMILES) |
| --- | --- | --- |
| 10 µM | > 10 µM | O=C(NCc1ccccn1)c1cnc(CNS(=O)(=O)c2ccc(F)c(Cl)c2)cn1 [5-(3-chloro-4-fluorobenzenesulfon-amidomethyl)-N-(pyridin-2-ylmethyl)pyrazine-2-carboxamide] |
| 10 µM | > 10 µM | O=C(NCc1ccno1)c1ccc(CNS(=O)(=O)c2ccc(F)c(Cl)c2)nc1 [6-(3-chloro-4-fluorobenzenesulfon-amidomethyl)-N-(1,2-oxazol-5-ylmethyl)pyridine-3-carboxamide] |
| – | 0.1 to 1 µM | Cc1ncc(CNC(=O)c2cnc(CNS(=O)(=O)c3ccc(Cl)c(Cl)c3)c(C)n2)s1 [5-(3,4-dichlorobenzenesulfon-amidomethyl)-6-methyl-N-[(2-methyl-1,3-thiazol-5-yl)methyl]pyrazine-2-carboxamide] |
| 10 µM | > 10 µM | COc1ccccc1CNC(=O)c1ccc(CNS(=O)(=O)c2ccc(F)c(Cl)c2)nc1 [6-(3-chloro-4-fluorobenzenesulfon-amidomethyl)-N-[(2-methoxyphenyl)methyl] pyridine-3-carboxamide] |
| 10 µM | > 10 µM | Cc1ncc(CNC(=O)c2ccc(CNS(=O)(=O)c3cccc4nsnc34)cn2)s1 [5-(2,1,3-benzothiadiazole-4-sulfonamidomethyl)-N-[(2-methyl-1,3-thiazol-5-yl)methyl]pyridine-2-carboxamide] |
| 10 µM | > 10 µM | O=C(NCc1cncnc1)c1ccc(CNS(=O)(=O)c2ccc(F)c(Cl)c2)nc1 [6-(3-chloro-4-fluorobenzenesulfon-amidomethyl)-N-(pyrimidin-5-ylmethyl)pyridine-3-carboxamide] |
| 10 µM | > 10 µM | Cc1ncc(CNC(=O)c2ccc(CNC(=O)c3cccc(F)c3)cn2)s1 [5-{[(3-fluorophenyl)formamido]methyl}-N-[(2-methyl-1,3-thiazol-5-yl)methyl]pyridine-2-carboxamide] |
| 10 µM | > 10 µM | O=C(NCc1ccoc1)c1ccc(CNS(=O)(=O)c2ccc(F)c(Cl)c2)nn1 [6-(3-chloro-4-fluorobenzenesulfon-amidomethyl)-N-(furan-3-ylmethyl)pyridazine-3-carboxamide] |
| 10 µM | > 10 µM | O=C(NCc1ccncc1)c1ccc(CNS(=O)(=O)c2ccc(F)c(Cl)c2)nc1 [6-(3-chloro-4-fluorobenzenesulfon-amidomethyl)-N-(pyridin-4-ylmethyl)pyridine-3-carboxamide] |
| 10 µM | > 10 µM | Cc1ncc(CNC(=O)c2ccc(CNS(=O)(=O)c3ccc(F)c(Cl)c3)nn2)s1 [6-(3-chloro-4-fluorobenzenesulfon-amidomethyl)-N-[(2-methyl-1,3-thiazol-5-yl)methyl]pyridazine-3-carboxamide] |
| 10 µM | > 10 µM | Cc1nc(CNC(=O)c2ccc(CNS(=O)(=O)c3ccc(F)c(Cl)c3)cn2)cs1 [5-(3-chloro-4-fluorobenzenesulfon-amidomethyl)-N-[(2-methyl-1,3-thiazol-4-yl)methyl]pyridine-2-carboxamide] |
| 10 µM | > 10 µM | Cc1ncc(CNC(=O)c2ccc(CNS(=O)(=O)c3ccsc3)cn2)s1 [N-[(2-methyl-1,3-thiazol-5-yl)methyl]-5-(thiophene-3-sulfonamidomethyl) pyridine-2-carboxamide] |
| 10 µM | > 10 µM | O=C(NCc1ccncn1)c1cnc(CNS(=O)(=O)c2ccc(F)c(Cl)c2)cn1 [5-(3-chloro-4-fluorobenzenesulfon-amidomethyl)-N-(pyrimidin-4-ylmethyl)pyrazine-2-carboxamide] |
| – | 1 to 10 µM | O=C(NCc1cncc(F)c1)c1cnc(CNS(=O)(=O)c2ccc(F)c(Cl)c2)cn1 [5-(3-chloro-4-fluorobenzenesulfon-amidomethyl)-N-[(5-fluoropyridin-3-yl)methyl]pyrazine-2-carboxamide] |
| 10 µM | > 10 µM | CN(C)CCCCNC(=O)c1ccc(CNS(=O)(=O)c2ccc(F)c(Cl)c2)nc1 [6-(3-chloro-4-fluorobenzenesulfon-amidomethyl)-N-[4-(dimethylamino)butyl] pyridine-3-carboxamide] |
